# Reference: publication PMC8752837, “Structural basis of BAK activation in mitochondrial apoptosis initiation” (Nature Communications, 2022)
# Substitutions are numbered along the chain they refer to.
# Tests used:
# MEAS-BAK-His6 = target: T1, MEAS-BAK-His6 (Homo sapiens, UniProt Q16611); assay: Surface plasmon resonance; type: binding; conditions: 20 °C; for Kd: MEAS-BAK-His6 captured on Ni-NTA HisCap chip, three-fold peptide dilution series injected in triplicate, read-out: SPR KD
# T1 construct: C-terminus truncated recombinant human BAK containing C-terminal 6× histidine tag (MEAS-BAK); made in house; host or cells: E. coli T7 Express pLac I/Y
# T1 sequence (Q16611 1-186 limits assumed): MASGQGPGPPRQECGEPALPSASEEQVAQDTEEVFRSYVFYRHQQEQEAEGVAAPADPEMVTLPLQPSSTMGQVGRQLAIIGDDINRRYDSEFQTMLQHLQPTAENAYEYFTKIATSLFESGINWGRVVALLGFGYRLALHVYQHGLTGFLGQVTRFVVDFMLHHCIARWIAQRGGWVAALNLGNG
# Procedure: We conducted SPR experiments at 20 °C using a Pioneer FE optical biosensor (ForteBio) amd histidine-tagged MEAS-BAK-His6 immobilized on polycarboxylate hydrogel-coated gold chips preimmobilized with nitrilotriacetic acid (HisCap chips; ForteBio). We primed the chip in chelating buffer (10 mM HEPES pH 7.4, 150 mM NaCl, 50 µM EDTA, 0.005% Tween20) and preconditioned it at 10 µL/min with three 60 s injections of wash buffer (10 mM HEPES pH 8.3, 150 mM NaCl, 350 mM EDTA, 0.05% Tween20) and one 60 s injection of chelating buffer before charging with a 60 s injection of 500 µM NiCl2 in chelating buffer. After priming into binding buffer (20 mM HEPES pH 8.0, 200 mM NaCl, 1 mM TCEP, 0.01% Tween20), we injected BAK to achieve ~500 RU of captured protein. As reference cell, we charged one flow cell on the chip with Ni^2+ without adding protein. […] We included a series of buffer-only (blank) injections throughout the experiment to account for instrumental noise. […] We processed, double-referenced, solvent corrected, and analyzed the data using the software package Qdat (version 4.3.1.2, ForteBio). We determined kinetic rate constants and affinities by fitting the data to a 1:1 interaction model.
# Human BAK-∆TM-His6 (BAK) = target: T2, Human BAK-∆TM-His6 (BAK) (Homo sapiens, UniProt Q16611); assay: Liposome permeabilization assay (ANTS/DPX dye release from LUVs): activation of WT BAK by BH3 peptides; type: biochemical; conditions: 50 nM BAK; for BAK activation or inhibition in liposome permeabilization: disubstituted BID-like BH3 peptides, Fig. 5c
# T2 construct: C-terminus truncated recombinant human BAK containing C-terminal 6× histidine tag (MEAS-BAK); made in house; host or cells: E. coli T7 Express pLac I/Y
# T2 sequence (Q16611 1-186 limits assumed): T1 sequence (Q16611 1-186 limits assumed)
# Procedure: We performed liposome permeabilization assays as previously described[43]–[46]. […] We mixed the lipid film in ANTS/DPX solution by vortexing and sonication (~15 min) followed by extrusion through polycarbonate membrane of 2 μm pore size (Avanti Polar lipids) to generate homogenous large unilamellar vesicles (LUVs). We separated LUVs from free ANTS/DPX by S500 size exclusion chromatography and stored them at 4 °C in the dark. We prepared peptide and protein dilutions in 96-well black flat bottom plates (Costar) kept on ice. […] We quantified liposome permabilization by integrating area under curve (AUC) of normalized traces based on the Simpson’s equation, and analyzed that data in Excel and GraphPad Prism. AUC measurements reflect the kinetic and extent of liposome permeabilization and provide quantitative means for comparison between different experimental conditions (e.g., BAK mutants with gross or partial variation in activity).
# I81R(3) BAK = target: T3, I81R(3) BAK (Homo sapiens, UniProt Q16611, I81R); assay: Liposome permeabilization assay: BH3 peptide activation of I81R(3) BAK receptor; type: biochemical; conditions: 200 nM protein receptor; rebuttal, earlier Figure 7c; read-out: EC50 in liposome permeabilization upon direct activation of I81R BAK
# T3 construct: C-terminus truncated recombinant human BAK containing C-terminal 6× histidine tag (MEAS-BAK); made in house; host or cells: E. coli T7 Express pLac I/Y
# T3 sequence (Q16611 1-186 I81R limits assumed): T1 sequence (Q16611 1-186 limits assumed) with I81R
# Procedure: We next compared activation of mutant BAK receptors by WT BID BH3 and WT BAK BH3 peptide ligands. At concentrations above 1 µM, both peptide ligands would activate WT or V74A(1) BAK (Supplementary Figs. 3e, 4d, e, and Supplementary Table 1).
# We performed liposome permeabilization assays as previously described[43]–[46]. […] (nickel salt) [DGS NTA(Ni), 2.5 μM final concentration in each assay] (Avanti Polar Lipids). We prepared 12.5 mM fluorophore; 8-aminonaphthalene-1, 3, 6-trisulfonic acid, disodium salt (ANTS) and 45 mM quencher; p-xylene-bis-pyridiniumbromide (DPX) in LUV buffer (10 mM HEPES pH 6.8, 200 mM KCl and 5 mM MgCl2). We mixed the lipid film in ANTS/DPX solution by vortexing and sonication (~15 min) followed by extrusion through polycarbonate membrane of 2 μm pore size (Avanti Polar lipids) to generate homogenous large unilamellar vesicles (LUVs). We separated LUVs from free ANTS/DPX by S500 size exclusion chromatography and stored them at 4 °C in the dark. We prepared peptide and protein dilutions in 96-well black flat bottom plates (Costar) kept on ice. ANTS release from permeabilized liposomes causes an increase in fluorescence, which we monitored at 37 °C for 90 min using a CLARIOSTAR microplate reader (BMG Labtech) set at excitation and emission wavelengths of 360 and 530 nm, respectively. We normalized the data relative to maximum and minimum fluorescence induced by 3% CHAPS and buffer controls, respectively. We quantified liposome permabilization by integrating area under curve (AUC) of normalized traces based on the Simpson’s equation, and analyzed that data in Excel and GraphPad Prism. AUC measurements reflect the kinetic and extent of liposome permeabilization and provide quantitative means for comparison between different experimental conditions (e.g., BAK mutants with gross or partial variation in activity). Variability in permeabilization of different liposomes is common and our analyses compare among conditions investigated with the same liposomes. […]
# I81R BAK = target: T4, I81R BAK (Homo sapiens, UniProt Q16611, I81R); assay: Isothermal titration calorimetry with mutant BAK; type: binding; conditions: rebuttal, earlier Figures 7c, S10d
# T4 construct: To generate tevBAK (residues 22–186), we cleaved off the histidine tag with TEV protease; His tag (vector pNIC28-Bsa4) (N, cleaved yes); made in house; host or cells: E. coli T7 Express pLac I/Y
# T4 sequence (Q16611 22-186 I81R): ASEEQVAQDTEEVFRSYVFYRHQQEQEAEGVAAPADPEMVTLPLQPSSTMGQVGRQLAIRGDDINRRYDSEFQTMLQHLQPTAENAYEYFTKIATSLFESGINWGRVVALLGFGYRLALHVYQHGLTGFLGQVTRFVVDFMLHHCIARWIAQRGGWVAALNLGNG
# Procedure: (§1) Protein samples were exchanged into 20 mM HEPES, 100 mM NaCl and 1 mM TCEP prior to the experiment. Titrations were performed by first injecting 0.5 μl of 250 or 500 µM BID BH3 peptides into a solution of 20 or 50 µM BAK followed by additional 2 μl injections. […] Results were analyzed using Origin software (OriginLab) provided by MicroCal. Binding constants (KD) and thermodynamic parameters were calculated from the average of two or three individual titrations by fitting the data to a single site binding model using a nonlinear least-squares fitting algorithm.
# [1] = test system: BCL2allKO HCT116 cells reconstituted with Dox-inducible mC-BAK; assay: Dox-induced cell death by IncuCyte imaging of SYTOX Green uptake (autoactivation); type: cell-based, human; conditions: qVD 40 µM
# Source text: For mammalian cell culture experiments, we cloned the full length human BAK cDNA into pCR 2.1 TOPO vector, mutated BAK as needed, and PCR amplified the BAK gene for cloning into the BamHI and NotI sites of pRETROX mCherry vector for retroviral transduction. Amplification and mutagenesis primers are included in Supplementary Table 4. To test direct BAK activation and BAK autoactivation in cells, we produced cells stably expressing mCherry-human BAK (mC-BAK) ± human BID (BID) on a genetic background devoid of the entire BCL-2 family repertoire (all 17 BCL-2 genes), BCL2allKO HCT116, as described by the Xu Luo laboratory. […] To enrich for populations of cells that express mC-BAK, we treated cells with low Dox dose (25 ng/mL) and fluorescence-activated cell sorted (FACS) the mCherry positive cells. […]
# We seeded cells in 24-well (100,000 cells/well), 96-well (15,000 cells/well), or 384-well (10,000 cells/well) plates coated with 10 µg/mL fibronectin. After ≥24 h of attachment and recovery, we induced cell death with Dox (up to 1000 ng/mL) and monitored SYTOX Green (25 nM) uptake by Incucyte imaging. […] We monitored Incucyte imaging for up to 48 h, followed by endpoint FACS analysis to measure the extent of cell death based on SYTOX Green positive cells on FACSCalibur systems (BD Biosciences). As expected, cells with low mCherry fluorescence were refractory to cell death.
# WT tevBAK = target: T5, WT tevBAK (Homo sapiens, UniProt Q16611); assay: Isothermal titration calorimetry; type: binding; conditions: for % bound: estimated as ([BID BH3] × 100)/(KD + [BID BH3])
# T5 construct: To generate tevBAK (residues 22–186), we cleaved off the histidine tag with TEV protease; His tag (vector pNIC28-Bsa4) (N, cleaved yes); made in house; host or cells: E. coli T7 Express pLac I/Y
# T5 sequence (Q16611 22-186): T4 sequence (Q16611 22-186 I81R) with R60I
# Procedure: as §1
# [2] = 25 °C, single site binding model
Kd (MEAS-BAK-His6; 1:1 interaction model),"EC50 (Human BAK-∆TM-His6 (BAK); EC50 from AUC vs peptide dose, data in Supplementary Figure 7c, 37 °C, 90 min, read-out: Liposome permeabilization EC50)",EC50 (I81R(3) BAK),Kd (I81R BAK),SPR kd (MEAS-BAK-His6; 1:1 interaction model),"kon (MEAS-BAK-His6; 1:1 interaction model, read-out: SPR ka)",SPR Rmax (MEAS-BAK-His6; ~500 RU captured BAK),BAK activation or inhibition in liposome permeabilization (Human BAK-∆TM-His6 (BAK); listed as W(3)W(5) BID BH3 ligand),"% of BAK bound to peptide under crystallization conditions (WT tevBAK; 10 mg/mL BAK (0.5 mM) and 2 mM peptide, from KD of […])",ITC -T∆S (WT tevBAK; [2]),ITC ∆G (WT tevBAK; [2]),ITC ∆H (WT tevBAK; [2]),"% bound (WT tevBAK; [BID BH3] 1 μM, listed as W3W5 peptide)",% bound (WT tevBAK; [BID BH3] 10 μM),Compound,effect on cell death [1],BAK activation or inhibition in liposome permeabilization (Human BAK-∆TM-His6 (BAK); listed as W(3)W(5) BID BH3 peptide)
0.506 ± 0.001 µM,0.079 ± 0.049 µM,~5 µM,1.34 µM,,,,,,,,,,,CC[C@H](C)[C@H](NC(=O)[C@H](CC(N)=O)NC(=O)[C@H](CCCNC(=N)N)NC(=O)[C@@H](NC(=O)[C@@H](NC(=O)[C@H](CC(=O)O)NC(=O)[C@H](CCC(=O)O)NC(C)=O)[C@@H](C)CC)[C@@H](C)CC)C(=O)N[C@@H](C)C(=O)N[C@@H](CCCNC(=N)N)C(=O)N[C@@H](Cc1c[nH]cn1)C(=O)N[C@@H](CC(C)C)C(=O)N[C@@H](C)C(=O)N[C@@H](CCC(N)=O)C(=O)N[C@@H](CCSC)C(=O)NCC(=O)N[C@@H](CC(=O)O)C(=O)N[C@@H](CO)C(=O)N[C@@H](CCSC)C(=O)N[C@@H](CC(=O)O)C(=O)N[C@@H](CCCNC(=N)N)C(=O)N[C@@H](CO)C(=O)N[C@@H](Cc1c[nH]c2ccccc12)C(N)=O [M(3)W(5)],,
,,,,,,,,,,,,,,"CC(C)[C@H](NC(=O)c1ccc2ccccc2n1)C(=O)N[C@@H](CC(=O)O)C(=O)COc1c(F)cccc1F [qVD, reference compound]",blocked cell death,
0.336 ± 0.001 µM,,,,2.41±0.01 ×10-2 s-1,71900 ± 100 M⁻¹ s⁻¹,79.2±0.1 RU,fully inhibitory,~99.99%,23.1 ± 6.69 kJ/mol,-37.7 ± 0.418 kJ/mol,-60.88 ± 7.36 kJ/mol,80%,97.5%,Ac-EDIIRNIARHLAQWGDSMDRSW-NH2 [W(3)W(5)],,"activates BAK efficiently at low doses, yet inhibits BAK at high doses"
